target: T1, human EP2 receptor (Homo sapiens, UniProt P43116); assay: Measurement of EP2 agonist activity (cAMP concentration) in EP2-CHO cells; type: cell-based; conditions: EP2-CHO cells, cAMP production, 30 minutes at room temperature; read-out: EC50 (agonist activity on human EP2 receptor)
T1 construct: expressed in transfected cells; host or cells: CHO cells (EP2-CHO)
Experimental: (1) Measurement of Agonist Activity on Various Prostanoid Receptors
Using Chem1 cells or CHO cells in which various prostanoid receptors were forcibly expressed, respectively, agonist activities of test compounds on various prostanoid receptors was determined employing, as a measure, an intracellular cyclic AMP (hereinbelow, abbreviated as “cAMP”) production amount or an intracellular calcium concentration.
Each of the test compound and a control substance (PGE2 and PGF2α) was dissolved in dimethyl sulfoxide (DMSO) to prepare a 10 mmol/L solution. The 10 mmol/L solution thus prepared was thawed upon use, was then serially diluted with DMSO, and was then diluted with a buffered solution for measurement or a buffered solution for measurement 2, and then the resulting solution was subjected to an experiment.
Cells, in which various prostanoid receptors were respectively forcibly expressed, were subjected to static culture at 37° C. in the presence of 5% CO2 using a DMEM medium (Sigma) (for culturing FP-Chem1 cells) containing inactivated (56° C., 30 minutes) 9.8 vol % nondialysed-FBS (Life Technologies), 1 vol % Non Essential Amino Acids (Life Technologies), 10 mmol/L HEPES Buffered solution (Life Technologies), 0.5 vol % GENETICIN (Life Technologies) and 1% penicillin-streptomycin (Life Technologies) or an α-MEM medium (Sigma) (for culturing EP2-CHO cells) containing inactivated (56° C., 30 minutes) 9.8 vol % dialysed-FBS (Life Technologies) and penicillin-streptomycin-glutamine (Life Technologies). Subculturing was carried out in the following manner.
The medium was removed from a culture, and the culture was washed with Ca^2+-free and Mg^2+-free phosphate-buffered physiological saline one time. A proper amount of trypsin-EDTA (Life Technologies) was added to the washed product, and then the resultant product was incubated at 37° C. The cells were detached, and then a medium in a volume that is 10-fold the volume of trypsin-EDTA was added thereto to terminate the enzymatic reaction. The cells were collected in a centrifuge tube and then centrifuged at room temperature at 120 g for 3 minutes, and the supernatant was discarded therefrom. The cells were suspended in a proper amount of the medium and seeded in a culture flask.
On the day of measurement, a medium was removed and EP2-CHO cells were washed one time with a phosphate-buffered physiological saline containing 2 mmol/L EDTA and not containing Ca^2+ and Mg^2+. A proper amount of the phosphate-buffered physiological saline containing 2 mmol/L EDTA and not containing Ca^2+ and Mg^2+ was added to the cells, and this was incubated at 37° C. in the presence of 5% CO2. Subsequently, the cells were detached, then collected in a centrifuge tube and then centrifuged at room temperature at 550 g for 3 minutes, and the supernatant was removed therefrom. The cells were suspended in a proper amount of a buffered solution for measurement 1 (a MEM medium (Invitrogen) containing 1.0 w/v % of bovine serum albumin (Sigma) and 2 μmol/L of diclofenac (Sigma)), and the suspension was centrifuged at room temperature at 200 g for 3 minutes, and the supernatant was removed. The cells were suspended in a buffered solution for measurement 2 (MEM medium (Invitrogen) containing 1.0 w/v % of bovine serum albumin (Sigma), 2 μmol/L of diclofenac (Sigma) and 1 mmol/L of 3-isobutyl-1-methylxanthine), and each 25 μL of the suspension was dispensed into a 96-well ½ area plate so that the number of cells per well became […]. The buffered solution for measurement 2 (25 μL) containing a compound at each of various concentrations was added to each well to carry out a reaction at room temperature for 30 minutes. Measurement of a cAMP concentration was carried out using cAMP HTRF HiRange kit (CIS bio International). In accordance with the two-step protocol of the kit manual, each 25 μL of cAMP-D2 and Cryptase each diluted with a lysis buffer were added. […]

T1 sequence (P43116 whole entry): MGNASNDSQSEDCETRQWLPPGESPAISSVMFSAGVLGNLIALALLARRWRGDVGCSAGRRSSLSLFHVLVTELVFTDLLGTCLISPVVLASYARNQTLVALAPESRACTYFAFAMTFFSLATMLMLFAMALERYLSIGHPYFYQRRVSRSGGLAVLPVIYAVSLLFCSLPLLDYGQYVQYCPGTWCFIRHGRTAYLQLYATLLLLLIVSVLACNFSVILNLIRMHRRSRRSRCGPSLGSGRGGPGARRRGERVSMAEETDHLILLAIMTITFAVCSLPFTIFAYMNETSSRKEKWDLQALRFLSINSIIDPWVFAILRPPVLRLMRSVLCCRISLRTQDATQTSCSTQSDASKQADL

In order of falling EC50:
1. O=C(O)c1csc([C@H]2CC[C@@H]3[C@@H](/C=C/CCCOc4ccccc4)[C@H](O)C[C@@H]3O2)n1 [Example 2-4, 2-{(2R,4aR,5R,6R,7aS)-6-Hydroxy-5-[(1E)-5-phenoxy-1-penten-1-yl]octahydrocyclopenta[b]pyran-2-yl}-1,3-thiazole-4-carboxylic acid]  14 nM
2. Cc1ccc(OC/C=C/[C@@H]2[C@H]3CC[C@H](c4nc(C(=O)O)cs4)O[C@H]3C[C@H]2O)cc1 [Example 2-9, 2-{(2R,4aR,5R,6R,7aS)-6-Hydroxy-5-[(1E)-3-(4-methylphenoxy)-1-propen-1-yl]octahydrocyclopenta[b]pyran-2-yl}-1,3-thiazole-4-carboxylic acid]  5.8 nM
3. Cc1cc(OCC[C@@H]2[C@H]3CC[C@H](c4nc(C(=O)O)cs4)O[C@H]3C[C@H]2O)ccc1[N+](=O)[O-] [Example 13-20, 2-{(2R,4aR,5R,6R,7aS)-6-Hydroxy-5-[2-(3-methyl-4-nitrophenoxy)ethyl]octahydrocyclopenta[b]pyran-2-yl}-1,3-thiazole-4-carboxylic acid]  5.7 nM
4. O=C(O)c1csc([C@H]2CC[C@@H]3[C@@H](/C=C/CCOc4ccccc4)[C@H](O)C[C@@H]3O2)n1 [Example 2-2, 2-{(2R,4aR,5R,6R,7aS)-6-Hydroxy-5-[(1E)-4-phenoxy-1-buten-1-yl]octahydrocyclopenta[b]pyran-2-yl}-1,3-thiazole-4-carboxylic acid]  3.9 nM
5. COc1ccc(OCCC/C=C/[C@@H]2[C@H]3CC[C@H](c4nc(C(=O)O)cs4)O[C@H]3C[C@H]2O)cc1 [Example 2-1, 2-{(2R,4aR,5R,6R,7aS)-6-Hydroxy-5-[(1E)-5-(4-methoxyphenoxy)-1-penten-1-yl]octahydrocyclopenta[b]pyran-2-yl}-1,3-thiazole-4-carboxylic acid]  1.8 nM
6. O=C(O)c1csc([C@H]2CC[C@@H]3[C@@H](/C=C/COc4ccccc4C(F)(F)F)[C@H](O)C[C@@H]3O2)n1 [Example 2-16, 2-[(2R,4aR,5R,6R,7aS)-6-Hydroxy-5-{(1E)-3-[2-(trifluoromethyl)phenoxy]-1-propen-1-yl}octahydrocyclopenta[b]pyran-2-yl]-1,3-thiazole-4-carboxylic acid]  1.3 nM
7. CCCCCC(F)(F)/C=C/[C@@H]1[C@H]2CC[C@H](c3nc(C(=O)O)cs3)O[C@H]2C[C@H]1O [Example 8, 2-{(2R,4aR,5R,6R,7aS)-5-[(1E)-3,3-Difluoro-1-octen-1-yl]-6-hydroxyoctahydrocyclopenta[b]pyran-2-yl}-1,3-thiazole-4-carboxylic acid]  0.4 nM
8. N#Cc1ccc(CCC(O)/C=C/[C@@H]2[C@H]3CC[C@H](c4nc(C(=O)O)cs4)O[C@H]3C[C@H]2O)cc1 (stereo partly drawn) [Example 10, 2-{(2R,4aR,5R,6R,7aS)-5-[(1E)-5-(4-Cyanophenyl)-3-hydroxy-1-penten-1-yl]-6-hydroxyoctahydrocyclopenta[b]pyran-2-yl}-1,3-thiazole-4-carboxylic acid]  0.29 nM
9. O=C(O)c1csc([C@H]2CC[C@@H]3[C@@H](/C=C/C(O)CCC4CCCC4)[C@H](O)C[C@@H]3O2)n1 (stereo partly drawn) [Example 10-3, 2-{(2R,4aR,5R,6R,7aS)-5-[(1E)-5-Cyclopentyl-3-hydroxy-1-penten-1-yl]-6-hydroxyoctahydrocyclopenta[b]pyran-2-yl}-1,3-thiazole-4-carboxylic acid]  0.11 nM
10. CCC1([C@@H](O)C/C=C/[C@@H]2[C@H]3CC[C@H](c4nc(C(=O)O)cs4)O[C@H]3C[C@H]2O)CCC1 [Example 11-2, 2-{(2R,4aR,5R,6R,7aS)-5-[(1E,4S)-4-(1-Ethylcyclobutyl)-4-hydroxy-1-buten-1-yl]-6-hydroxyoctahydrocyclopenta[b]pyran-2-yl}-1,3-thiazole-4-carboxylic acid]  0.1 nM

same assay, conditions: comparison compounds from prior art documents; read-out: EC50 (EP2 agonist activity) of prior art compounds with analogous structure

`CCCCC[C@H](O)/C=C/[C@@H]1[C@H]2CCC(c3ccccc3CC(=O)O)O[C@H]2C[C@H]1O` (stereo partly shown) [reference compound] and `O=C(O)c1csc([C@H]2CC[C@@H]3[C@@H](/C=C/[C@@H](O)COc4ccccc4)[C@H](O)C[C@@H]3OC2)n1` [reference compound] cannot be ordered by EC50: no less than 10000 nM for the first, no less than 10000 nM for the second.

Compound `O=C(O)c1ccc(C2=CC[C@@H]3[C@@H](/C=C/[C@@H](O)C4CCCC4)[C@H](O)C[C@@H]3O2)o1` [reference compound] has an EC50 of no less than 10000 nM.

test system: not listed separately; assay: Intraocular pressure lowering activity after ocular instillation in rabbit; type: in vivo; conditions: male rabbit (NZW), ocular instillation 30 μL, administration concentration 10 μg/mL, 8 hours after the administration
Experimental: As can be easily understood by a person skilled in the art, in an in vivo test, since regarding all test compounds, carboxylic acid which is an active body has poor corneal permeability, pharmacological action of the active body was evaluated by ocular instillation administration of a compound which had been converted into an ester such as an ethyl ester or an isopropyl ester, or an alcohol.
A test compound-containing solution (30 μL) which had been adjusted to each of various concentrations was ocular instillation-administered to the left or right eye of a male rabbit (NZW (Healthy)) under consciousness, and an intraocular pressure was measured before the administration and 8 hours after the administration. An intraocular pressure before the administration was measured on a day before the administration. In measurement of an intraocular pressure, the rabbit was fixed on a wood-made restrainer, and the rabbit was anesthetized by the ocular instillation-administration of an ocular surface anesthetic agent (Benoxil eye drops 0.4%, Santen Pharmaceutical Co., Ltd.). After fitting a blepharostat (Handaya Co., Ltd.) to the rabbit, intraocular pressures of both eyes were measured (6 cases per group) with a pneumatic applanation flat tonometer (Model 30 Classic, REICHERT). A difference between an intraocular pressure value before the administration of a test compound and an intraocular pressure value after the administration of the test compound was calculated as an intraocular pressure lowering rate in accordance with the equation shown below, and the sustainability of intraocular eye lowering action was evaluated.
The administered concentrations were selected on the basis of the EP2 agonist activities measured by the above-mentioned method.

In order of rising “Intraocular pressure lowering rate (%)” value:
1. CC(C)OC(=O)c1csc([C@H]2CC[C@@H]3[C@@H](/C=C/COc4ccccc4C(F)(F)F)[C@H](O)C[C@@H]3O2)n1 [Example 4-3, Isopropyl 2-[(2R,4aR,5R,6R,7aS)-6-hydroxy-5-{(1E)-3-[2-(trifluoromethyl)phenoxy]-1-propen-1-yl}octahydrocyclopenta[b]pyran-2-yl]-1,3-thiazole-4-carboxylate]  12.1%
2. COc1ccc(OCCC/C=C/[C@@H]2[C@H]3CC[C@H](c4nc(C(=O)OC(C)C)cs4)O[C@H]3C[C@H]2O)cc1 [Example 4, Isopropyl 2-{(2R,4aR,5R,6R,7aS)-6-hydroxy-5-[(1E)-5-(4-methoxyphenoxy)-1-penten-1-yl]octahydrocyclopenta[b]pyran-2-yl}-1,3-thiazole-4-carboxylate]  19.1%
3. Cc1cc(OCC[C@@H]2[C@H]3CC[C@H](c4nc(C(=O)OC(C)C)cs4)O[C@H]3C[C@H]2O)ccc1[N+](=O)[O-] [Example 14, Isopropyl 2-{(2R,4aR,5R,6R,7aS)-6-hydroxy-5-[2-(3-methyl-4-nitrophenoxy)ethyl]octahydrocyclopenta[b]pyran-2-yl}-1,3-thiazole-4-carboxylate]  23.6%
